The nature of data set [1]: Relative inhibition of PDE4 from rat kidney and PDE5 from human platelets.
Data set [2] is described as follows: Relative inhibition of PDE2 from rat kidney and PDE5 from human platelets.
The nature of data set [3]: Relative inhibition of PDE6 from bovine retina and PDE5 from human platelets.
A short description of data set [4]: Relative inhibition of PDE1 from bovine heart and PDE5 from human platelets.
Data set [5] has as its target Phosphodiesterase 3 and 5 (PDE3 and PDE5) (Homo sapiens) (UniProt O76074+Q14432+Q13370). As to the kind of experiment: Relative inhibition of PDE3 and PDE5 from human platelets.
Data set [6] deals with cGMP-specific 3',5'-cyclic phosphodiesterase (Homo sapiens, UniProt O76074). Nature of the data set: Inhibition of Phosphodiesterase 5 from human platelets.
The species entered for a further data set is Oryctolagus cuniculus. As to the kind of experiment: Increased mean blood pressure in rabbit corpus carvenosum. It is filed as functional.
Data set [7] can be described thus: Relaxant effect mediated by PDE5 inhibition in rabbit corpus cavernosum. Type of data set: functional, tissue-based, Oryctolagus cuniculus.
Data set [8] can be described thus: Half life of compound was determined in male dogs. The note with it: dog, in vivo. Type of data set: ADME, organism-based, Canis lupus familiaris.
Data set [9] is described as follows: Bioavailability in rat (male). It is filed as ADME, organism-based. The note with it: in vivo.
The nature of data set [10]: Half life of compound was determined in male rats. Type of data set: ADME, organism-based. Conditions: rat, in vivo.
The nature of data set [11]: Bioavailability in dog (male). It is filed as ADME, organism-based, Canis lupus familiaris. Conditions: in vivo.

Each structure is given as a SMILES string.

Usually IC50 stands for the concentration that gives 50% inhibition. As usually defined, the ED50 is the dose at which the effect has come halfway, by size or by number of responders. A high value points to a need for a large dose. The term EC50 denotes the concentration at which the effect is half-maximal. The half-life is the time needed for the level to fall by half in the phase considered. In general, bioavailability refers to the share of a dose that reaches the circulation, judged against a reference dose that is usually intravenous. Read a high bioavailability as good availability.

On to `CCn1ncc2c3c(NCc4ccc(OC)c(Cl)c4)nnc(N4CCC(O)CC4)c3cnc21`, for which the Ratio worked out at 300 in data set [1]; 4000 in data set [2]; 80 in data set [3]; 5700 in data set [4]; 7500 in data set [5].
For the molecule `CCn1ncc2c3c(NCc4ccc(OC)c(Cl)c4)nnc(N4CCC(C(=O)O)CC4)c3cnc21`, the Ratio in [1] was 7500; in [2], greater than 10000; in [3], 30; in data set [4] it was greater than 10000; in [5] it was greater than 10000. Besides, the IC50 in data set [6] was determined as 30 pM.
`CCCc1nn(C)c2c(=O)[nH]c(-c3cc(S(=O)(=O)N4CCN(C)CC4)ccc3OCC)nc12`: the ED50 in the data set listed under Oryctolagus cuniculus was found to be 0.11 µmol/kg. The molecule further showed an EC50 in data set [7] of 19000 pM.
In the case of `CCn1ncc2c3c(NCc4ccc(OC)c(Cl)c4)nnc(NCc4ccncc4)c3cnc21`, the Ratio is 4000 in data set [1]; greater than 10000 in [2]; 210 in data set [3]; greater than 10000 in data set [4]; greater than 10000 in data set [5]. For the same molecule, the IC50 in [6] was 100 pM.
In the case of `CCn1ncc2c3c(NCc4ccc(OC)c(Cl)c4)nnc(-n4cnc(C(=O)NC)c4)c3cnc21`, the Ratio in data set [1] is greater than 10000; in data set [2], greater than 10000; in data set [3] it was 150; in [4], greater than 10000. The molecule also gave an ED50 in the data set filed under Oryctolagus cuniculus of 0.1 µmol/kg. Besides, the half-life was 2 h in data set [8] and 1.2 h in data set [10]. Besides, the bioavailability came out at 29% in [9] and 42% in [11]. In addition, the EC50 in [7] amounted to 13000 pM. In data set [6], the IC50 was determined as 300 pM.
Consider `CCn1ncc2c(NCc3ccc(OC)c(Cl)c3)c(C(=O)NCc3ccncc3)cnc21`, for which the Ratio in data set [1] was found to be 600; in data set [2], 9200; in [3], 47; in data set [4], 6400.

These data come from ChEMBL document CHEMBL1145960, “Substituted pyrazolopyridopyridazines as orally bioavailable potent and selective PDE5 inhibitors: potential agents for treatment of erectile dysfunction” (J Med Chem, 2003).
